Target: T1, hSTING (Homo sapiens, UniProt Q86WV6, G230A/H232R/R293Q/R71H)
T1 construct: host or cells: THP1-Dual KO-IFNAR2 cells
Experiment: STING reporter assay (luciferase) in THP1-Dual KO-IFNAR2 cells stimulated with 2'3'cGAMP
Assay type: cell-based
Details: 2'3'cGAMP 15 μM, 24 h, luciferase reporter activity
Summary of the method: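 THP1-Dual KO-IFNAR2 cells (2×10E6 cells/mL) exposed to compounds at 0.0017-100 μM final, then stimulated with 2′3′cGAMP (15 μM final) delivered by Lipofectamine 2000 transfection. After 24 h at 37° C, secreted luciferase in supernatant read by QUANTI-Luc luminescence; EC50 calculated.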

T1 sequence (Q86WV6 whole entry R71H/G230A/H232R/R293Q): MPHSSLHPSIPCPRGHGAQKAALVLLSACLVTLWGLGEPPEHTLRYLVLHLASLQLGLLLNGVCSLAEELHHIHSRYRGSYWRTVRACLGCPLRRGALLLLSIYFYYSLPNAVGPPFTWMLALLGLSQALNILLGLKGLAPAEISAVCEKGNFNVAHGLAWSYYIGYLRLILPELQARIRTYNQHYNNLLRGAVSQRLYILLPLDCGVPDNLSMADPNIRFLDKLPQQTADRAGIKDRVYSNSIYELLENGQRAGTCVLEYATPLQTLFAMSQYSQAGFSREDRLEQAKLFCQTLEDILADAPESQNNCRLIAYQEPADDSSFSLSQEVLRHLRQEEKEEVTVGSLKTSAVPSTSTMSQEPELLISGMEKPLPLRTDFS

EC50	SMILES
40 to 200 nM	C[C@@H]1CN(c2ncc(NC(=O)Nc3c[nH]c4cc(F)c(F)cc34)cc2Cl)C[C@@H](C)O1 [Compound 142, 1-(5-chloro-6-((2R,6R)-2,6-dimethylmorpholino)pyridin-3-yl)-3-(5,6-difluoro-1H-indol-3-yl)urea]
40 to 200 nM	O=C(Nc1cnc(C2CC(F)(F)C2)c(Cl)c1)Nc1c[nH]c2ccc(F)cc12 [Compound 277, 1-(5-chloro-6-(3,3-difluorocyclobutyl)pyridin-3-yl)-3-(5-fluoro-1H-indol-3-yl)urea]
200 to 1000 nM	COc1cc(NC(=O)Nc2c[nH]c3cc(F)c(F)cc23)cnc1N1CC(F)(F)C1 [Compound 168, 1-(5,6-difluoro-1H-indol-3-yl)-3-(6-(3,3-difluoroazetidin-1-yl)-5-methoxypyridin-3-yl)urea]
1000 to 5000 nM	O=C(Nc1cnn(C2CC(F)(F)C2)c1)Nc1c[nH]c2cc(F)c(F)cc12 [Compound 216, 1-(5,6-difluoro-1H-indol-3-yl)-3-(1-(3,3-difluorocyclobutyl)-1H-pyrazol-4-yl)urea]
200 to 1000 nM	O=C(Nc1cnc(N2CCC(F)(F)CC2)cn1)Nc1c[nH]c2ccccc12 [Compound 205, 1-(5-(4,4-difluoropiperidin-1-yl)pyrazin-2-yl)-3-(1H-indol-3-yl)urea]
40 to 200 nM	O=C(Nc1cnc(C2CC(F)(F)C2)c(Cl)c1)Nc1c[nH]c2ccc(Cl)cc12 [Compound 144, 1-(5-chloro-1H-indol-3-yl)-3-(5-chloro-6-(3,3-difluorocyclobutyl)pyridin-3-yl)urea]
40 to 200 nM	O=C(Nc1cnc(C2CCN(CC(F)(F)F)CC2)c(Cl)c1)Nc1c[nH]c2ccc(Cl)cc12 [Compound 297, 1-(5-chloro-1H-indol-3-yl)-3-(5-chloro-6-(1-(2,2,2-trifluoroethyl)piperidin-4-yl)pyridin-3-yl)urea]
40 to 200 nM	O=C(Nc1ccc(C2CCC(F)(F)CC2)nc1)Nc1c[nH]c2ccc(Cl)cc12 [Compound 130, 1-(5-chloro-1H-indol-3-yl)-3-(6-(4,4-difluorocyclohexyl)pyridin-3-yl)urea]
40 to 200 nM	CC1(C)CN(c2ncc(NC(=O)Nc3c[nH]c4ccc(Cl)cc34)cc2Cl)CCO1 [Compound 298, 1-(5-chloro-1H-indol-3-yl)-3-(5-chloro-6-(2,2-dimethylmorpholino)pyridin-3-yl)urea]
40 to 200 nM	O=C(Nc1cnc(N2CCN(CC(F)F)CC2)c(Cl)c1)Nc1c[nH]c2ccc(Cl)cc12 [Compound 261, 1-(5-chloro-1H-indol-3-yl)-3-(5-chloro-6-(4-(2,2-difluoroethyl)piperazin-1-yl)pyridin-3-yl)urea]
200 to 1000 nM	O=C(Nc1cnc(N2CCC(F)(F)CC2)c(CCO)c1)Nc1c[nH]c2cc(F)c(F)cc12 [Compound 143, 1-(5,6-difluoro-1H-indol-3-yl)-3-(6-(4,4-difluoropiperidin-1-yl)-5-(2-hydroxyethyl)pyridin-3-yl)urea]
40 to 200 nM	O=C(Nc1cnc(N2CCC3(CC2)CC3)c(Cl)c1)Nc1c[nH]c2cc(F)c(F)cc12 [Compound 241, 1-(5-chloro-6-(6-azaspiro[2.5]octan-6-yl)pyridin-3-yl)-3-(5,6-difluoro-1H-indol-3-yl)urea]
1000 to 5000 nM	O=C(Nc1cnc(N2CCC(F)(F)CC2)c(Cl)c1)Nc1c[nH]c2ccc(Br)cc12 [Compound 208, 1-(5-bromo-1H-indol-3-yl)-3-(5-chloro-6-(4,4-difluoropiperidin-1-yl)pyridin-3-yl)urea]
200 to 1000 nM	COCCN(C(=O)Nc1c[nH]c2ccc(Cl)cc12)c1cnc(C2CCC(F)(F)CC2)c(Cl)c1 [Compound 228, 3-(5-chloro-1H-indol-3-yl)-1-(5-chloro-6-(4,4-difluorocyclohexyl)pyridin-3-yl)-1-(2-methoxyethyl)urea]
40 to 200 nM	O=C(Nc1cnc(N2CCC(F)(F)CC2)c(Cl)c1)Nc1c[nH]c2ccccc12 [Compound 206, 1-(5-chloro-6-(4,4-difluoropiperidin-1-yl)pyridin-3-yl)-3-(1H-indol-3-yl)urea]
200 to 1000 nM	Cc1cc(NC(=O)Nc2c[nH]c3ccccc23)cnc1N1CCC(F)(F)CC1 [Compound 201, 1-(6-(4,4-difluoropiperidin-1-yl)-5-methylpyridin-3-yl)-3-(1H-indol-3-yl)urea]
1000 to 5000 nM	C[C@H]1CN(c2ncc(NC(=O)Nc3c[nH]c4ccc(Cl)cc34)cc2Cl)CCN1 [Compound 296, (S)-1-(5-chloro-1H-indol-3-yl)-3-(5-chloro-6-(3-methylpiperazin-1-yl)pyridin-3-yl)urea]
1000 to 5000 nM	O=C(Nc1cnc(C2CCC(F)(F)CC2)c(Cl)c1)Nc1c[nH]c2cc(Cl)ccc12 [Compound 140, 1-(6-chloro-1H-indol-3-yl)-3-(5-chloro-6-(4,4-difluorocyclohexyl)pyridin-3-yl)urea]
200 to 1000 nM	O=C(Nc1cnc(N2CCN(CC(F)(F)F)CC2)c(F)c1)Nc1c[nH]c2ccccc12 [Compound 278, 1-(5-fluoro-6-(4-(2,2,2-trifluoroethyl)piperazin-1-yl)pyridin-3-yl)-3-(1H-indol-3-yl)urea]

EC50	SMILES
200 to 1000 nM	O=C(Nc1cnc(N2CC3(CN(CC(F)(F)F)C3)C2)c(Cl)c1)Nc1c[nH]c2ccccc12 [Compound 250, 1-(5-chloro-6-(6-(2,2,2-trifluoroethyl)-2,6-diazaspiro[3.3]heptan-2-yl)pyridin-3-yl)-3-(1H-indol-3-yl)urea]
200 to 1000 nM	C[C@@H]1CN(c2ncc(NC(=O)Nc3c[nH]c4cc(F)c(F)cc34)cc2Cl)CCO1 [Compound 158, (R)-1-(5-chloro-6-(2-methylmorpholino)pyridin-3-yl)-3-(5,6-difluoro-1H-indol-3-yl)urea]
40 to 200 nM	O=C(Nc1ccc(C2CC(F)(F)C2)c(Cl)c1)Nc1c[nH]c2ccc(Cl)cc12 [Compound 226, 1-(5-chloro-1H-indol-3-yl)-3-(3-chloro-4-(3,3-difluorocyclobutyl)phenyl)urea]
1000 to 5000 nM	O=C(Nc1ccnc(C2CCN(CC(F)(F)F)CC2)c1)Nc1c[nH]c2cc(F)c(F)cc12 [Compound 213, 1-(5,6-difluoro-1H-indol-3-yl)-3-(2-(1-(2,2,2-trifluoroethyl)piperidin-4-yl)pyridin-4-yl)urea]
1000 to 5000 nM	O=C(Nc1ccnc(C2CCCN(CC(F)(F)F)C2)c1)Nc1c[nH]c2cc(F)c(F)cc12 (stereo not shown) [Compound 219, 1-(5,6-difluoro-1H-indol-3-yl)-3-(2-(1-(2,2,2-trifluoroethyl)piperidin-3-yl)pyridin-4-yl)urea]
1000 to 5000 nM	O=C(Nc1cnn(C2CCN(CCC(F)(F)F)CC2)c1)Nc1c[nH]c2ccc(Cl)cc12 [Compound 223, 1-(5-chloro-1H-indol-3-yl)-3-(1-(1-(3,3,3-trifluoropropyl)piperidin-4-yl)-1H-pyrazo1-4-yl)urea]
200 to 1000 nM	O=C(Nc1cnc(N2CCC3(CCCCO3)CC2)c(Cl)c1)Nc1c[nH]c2cc(F)c(F)cc12 [Compound 176, 1-(5-chloro-6-(1-oxa-9-azaspiro[5.5]undecan-9-yl)pyridin-3-yl)-3-(5,6-difluoro-1H-indol-3-yl)urea]
40 to 200 nM	O=C(Nc1cnc(C2CC(F)(F)C2)c(Cl)c1)Nc1c[nH]c2ccccc12 [Compound 283, 1-(5-chloro-6-(3,3-difluorocyclobutyl)pyridin-3-yl)-3-(1H-indol-3-yl)urea]
200 to 1000 nM	O=C(Nc1ccc(N2CCN(CC(F)(F)F)CC2)nc1)Nc1c[nH]c2ccccc12 [Compound 280, 1-(1H-indol-3-yl)-3-(6-(4-(2,2,2-trifluoroethyl)piperazin-1-yl)pyridin-3-yl)urea]
200 to 1000 nM	Cc1cc(NC(=O)Nc2c[nH]c3ccccc23)cnc1C1CCN(CC(F)(F)F)CC1 [Compound 276, 1-(1H-indol-3-yl)-3-(5-methyl-6-(1-(2,2,2-trifluoroethyl)piperidin-4-yl)pyridin-3-yl)urea]
200 to 1000 nM	Cc1nc(NC(=O)Nc2c[nH]c3cc(F)c(F)cc23)cnc1N1CCC(F)(F)CC1 [Compound 175, 1-(5,6-difluoro-1H-indol-3-yl)-3-(5-(4,4-difluoropiperidin-1-yl)-6-methylpyrazin-2-yl)urea]
40 to 200 nM	O=C(Nc1cnc(N2CC3(CN(CC(F)(F)F)C3)C2)c(Cl)c1)Nc1c[nH]c2ccc(Cl)cc12 [Compound 262, 1-(5-chloro-1H-indol-3-yl)-3-(5-chloro-6-(6-(2,2,2-trifluoroethyl)-2,6-diazaspiro[3.3]heptan-2-yl)pyridin-3-yl)urea]
40 to 200 nM	O=C(Nc1ccc(C2CC(F)(F)C2)c(F)c1)Nc1c[nH]c2ccc(F)cc12 [Compound 272, 1-(4-(3,3-difluorocyclobutyl)-3-fluorophenyl)-3-(5-fluoro-1H-indol-3-yl)urea]
40 to 200 nM	O=C(Nc1ccc(C2CC(F)(F)C2)c(F)c1)Nc1c[nH]c2ccc(Cl)cc12 [Compound 139, 1-(5-chloro-1H-indol-3-yl)-3-(4-(3,3-difluorocyclobutyl)-3-fluorophenyl)urea]
200 to 1000 nM	O=C(Nc1cnn(C2CCC3(CC2)CC3)c1)Nc1c[nH]c2ccc(Cl)cc12 [Compound 214, 1-(5-chloro-1H-indol-3-yl)-3-(1-(spiro[2.5]octan-6-yl)-1H-pyrazol-4-yl)urea]
200 to 1000 nM	O=C(Nc1ccc(C2CC(F)(F)C2)c(Cl)c1)Nc1c[nH]c2cc(F)c(F)cc12 [Compound 225, 1-(3-chloro-4-(3,3-difluorocyclobutyl)phenyl)-3-(5,6-difluoro-1H-indol-3-yl)urea]
40 to 200 nM	CC1(C)CN(c2ncc(NC(=O)Nc3c[nH]c4cc(F)c(F)cc34)cc2Cl)CCO1 [Compound 153, 1-(5-chloro-6-(2,2-dimethylmorpholino)pyridin-3-yl)-3-(5,6-difluoro-1H-indol-3-yl)urea]
40 to 200 nM	O=C(Nc1cnc(N2CCC3(CC2)CC(F)(F)C3)c(Cl)c1)Nc1c[nH]c2ccc(Cl)cc12 [Compound 275, 1-(5-chloro-1H-indol-3-yl)-3-(5-chloro-6-(2,2-difluoro-7-azaspiro[3.5]nonan-7-yl)pyridin-3-yl)urea]
